{"source": "patent US20180042922A1", "about": "(priority 2016, published 2018)", "origin": "cited, not measured here", "test_system": "patients with PTSD", "conditions": "RCTs"}
{"smiles": "COc1cc2nc(N3CCN(C(=O)c4ccco4)CC3)nc(N)c2cc1OC", "note": "[prazosin]", "values": [{"measurement": "nightmares in patients with PTSD", "result": "decrease nightmares"}]}
